Laboratory results taken from US12558345B2, “CHK1/2 inhibitors for use in the treatment of neuroblastomas and/or soft tissue sarcomas” (Eli Lilly and Company, priority 2015, dated 2026).
Counter-ions that a name gives are not always drawn. Like-named read-outs stand apart in the source and are kept apart here.

Assays:
HT-29 cells = experiment: ECtfs (Two-Fold Sensitization) Assay; type: cell-based
Protocol: An inhibitor of CHK1 can potentiate the anti-proliferative activity of gemcitabine (or other cytotoxics) through abrogation of the intra-S phase checkpoint, resulting in sustained and increased DNA damage. The capacity for continued tumor cell proliferation after DNA damage can be analyzed by determining the ability of cells to replicate their DNA. […] In this assay, cells are treated with gemcitabine, and then with the compound of Example 2. Following a recovery period, cells are assayed for the ability to incorporate radioactive thymidine into DNA during S phase. The ECtfs parameter is a measure of the concentration of a CHK1 inhibitor necessary to reduce by half the GI90 concentration of gemcitabine, measured in this assay in the absence of CHK1 inhibition. HT-29 cells (obtained from ATCC), are grown in RPMI 1640 plus (Gibco™) 10% (v/v) heat inactivated FBS. These cells are plated at 1.3×10^3 per well on Corning Costar 96-well tissue culture plates. After plating the cells, the tissue culture plates are held at room temperature for 45 minutes, before returning to 37° C. Plates are incubated for 24 hours prior to gemcitabine addition. Before gemcitabine addition, medium is removed from all wells and replaced with 150 μL per well of fresh RPMI medium. Gemcitabine stocks at 10 mM are prepared in PBS. Gemcitabine dilutions were prepared at 4× concentrations in RPMI medium and added to wells at 50 μL per well. The highest final concentration of gemcitabine used is 80 μM and dilutions proceed by four-fold steps. Two hours later, gemcitabine-containing medium is removed from the wells and replaced with 150 μL per well of fresh RPMI medium. […] The volume of addition is 50 μL. Compound dilutions proceed by two-fold steps, starting at 5000 nM. […] Twenty μL of this solution is added to each well, yielding 1 µCi/well of ^3H-thymidine. Cells are labeled for twenty-two hours. The medium containing ^3H-thymidine is thoroughly removed from the wells. The plates are then frozen at −20° C., for several hours. To harvest the DNA containing incorporated ^3H-thymidine, plates are thawed for several minutes, and then 120 μL per well of 0.1 N NaOH is added to each well. Each plate is then incubated at 37° C., with slow mixing on a rotator, for 10 minutes. DNA is harvested with a Filtermate 196 Harvester (PerkinElmer) and collected on 96-well Unifilter GF/C plates (PerkinElmer #6005174). The wells of the tissue culture plate on which cells had been labeled are washed with water (5×). The Unifilter plate membranes are washed with an additional 4.5 mL per well (3×1.0 mL and finally a 1.5 mL wash). The Unifi is sealed with a Backseal adhesive sheet (PerkinElmer), and the 50 μL/well of MicroScint-20 (Perkin Elmer) is added. Each plate is then sealed with a Topseal clear adhesive sheet (PerkinElmer). Plates are counted on a Topcount scintillation counter (PerkinElmer), at 1 minute per well. ^3H-thymidine counts per minute (cpm) are exported into Prism (GraphPad) for analysis and plotting. […] For plotting the data in Prism, the gemcitabine concentrations are transformed to log values, and dose-response curves are fit by non-linear regression. Neither top nor bottom fits are constrained. The ECtfs value is 0.3 nM.

SJCRH-30 RMS xenograft = type: in vivo; settings: for % T/C: SJCRH-30, RMS
Protocol: Expand human RMS cancer cells SJCRH-30 (St. Jude Children's Research Hospital) in culture, harvest, and inject 5×10^6 cells in 200 μL of HBSS subcutaneously into the right rear flank of female athymic nude mice (20-22 g, Harlan Laboratories).
The vehicle used in this study is 20% Captisol® in sterile water and is administered subcutaneously for three consecutive days followed by a four day dosing holiday and repeated for a minimum of four weeks. […] The treatment period lasts 4 weeks.

[1] = tested on: CTG-0926 DSRCT patient-derived xenograft; experiment: Xenograft Tumor Model CTG-0926; type: in vivo, mouse; settings: comparator day 28, p-value <0.001
Protocol: (§1) The efficacy of 5-(5-(2-(3-aminopropoxy)-6-methoxyphenyl)-1H-pyrazol-3-ylamino)pyrazine-2-carbonitrile methanesulfonic acid monohydrate is measurable in vivo in mouse models of neuroblastomas and human pediatric and adult sarcomas. 5-(5-(2-(3-Aminopropoxy)-6-methoxyphenyl)-1H-pyrazol-3-ylamino)pyrazine-2-carbonitrile methanesulfonic acid monohydrate (10 mg/kg) can be administered subcutaneously to nude mice bearing either cell-derived xenografts (CDX) or patient-derived xenografts (PDX) of human rhabdomyosarcoma, desmoplastic small round cell tumor (DSRCT), osteosarcoma, and Ewing's sarcoma using a 3 day on, 4 day off b.i.d. dosing schedule. Tumor volume and body weight can be measured two times per week. Tumor-specific parameters can be evaluated by immumohistochemistry. […]
(§2) For all “ST” models (encompassing RMS and LMS), patient-derived xenografts are established from viable human tumor tissue and are serially passaged in animals a limited number of times to maintain tumor heterogeneity. […] Tumor response is determined by tumor volume measurement performed twice per week during the course of treatment.

[2] = tested on: CTG-0142 EWS patient-derived xenograft; experiment: Xenograft Tumor Model CTG-0142; type: in vivo, mouse; settings: comparator day 28, p-value 0.376
Protocol: as §1, §2

[3] = tested on: ST658 LMS patient-derived xenograft; experiment: Xenograft Tumor Model ST658; type: in vivo, mouse; settings: comparator day 16, p-value 0.592
Protocol: For all “ST” models (encompassing RMS and LMS), patient-derived xenografts are established from viable human tumor tissue and are serially passaged in animals a limited number of times to maintain tumor heterogeneity. In subcutaneous models, athymic nude mice (Crl:NU(NCr)-Foxn1nu) or CB-17 SCID mice (CRL-CB17/Icr-Prkdcscid/IcrIcoCrl) are injected or implanted unilaterally into the flank with tumor fragments harvested from host animals, each implanted from a specific passage lot. For all studies, measure tumor growth and body weight twice per week beginning on the seventh day after implantation. When tumor size reaches 150-300 mm^3, randomize animals and group into groups of 4-7 animals. Prepare test compound in an appropriate vehicle (e.g. vehicle can be 20% Captisol® in sterile water) and administer subcutaneously for three consecutive days followed by a four day dosing holiday and repeat for a minimum of four weeks. Tumor response is determined by tumor volume measurement performed twice per week during the course of treatment.

[4] = tested on: CTG-0994 EWS patient-derived xenograft; experiment: Xenograft Tumor Model CTG-0994; type: in vivo, mouse; settings: comparator day 25, p-value <0.001
Protocol: as §1, §2

## COc1cccc(OCCCN)c1-c1cc(Nc2cnc(C#N)cn2)n[nH]1 [Example 2, 5-(5-(2-(3-Aminopropoxy)-6-methoxyphenyl)-1H-pyrazol-3-ylamino)pyrazine-2-carbonitrile dihydrogen chloride salt]
HT-29 cells; HT29 cells, 3 nM of the compound of Example 2
  decrease of the EC50 of gemcitabine: 7 fold
HT-29 cells; HT-29 cells, concentration necessary to reduce by half the GI90 concentration of gemcitabine, 3H-thymidine incorporation
  ECtfs value: 0.3 nM
HT-29 cells; compound alone, 3 nM
  effect on the proliferation of HT29 cells: little effect

## COc1cccc(OCCCN)c1-c1cc(Nc2cnc(C#N)cn2)n[nH]1 [Example 5, 5-(5-(2-(3-Aminopropoxy)-6-methoxyphenyl)-1H-pyrazol-3-ylamino)pyrazine-2-carbonitrile methanesulfonic acid monohydrate]
SJCRH-30 RMS xenograft; comparator day 46
  % T/C: 0.1%
SJCRH-30 RMS xenograft; comparator day 56
  % T/C: 58%
SJCRH-30 RMS xenograft; SJCRH-30, SC three days on, four day holiday, 4 weeks, tumor regrowth occurs from day 38
  tumor response as a single agent: initial complete response until day 38
SJCRH-30 RMS xenograft; combination with doxorubicin, ifosfamide, or irinotecan
  effect on acquired resistance in SJCRH30 xenografts: appears to circumvent the acquired resistance
[1]
  % Regression: −76%
[2]
  % T/C: 66%
[3]
  % T/C: 137%
[4]
  % Regression: −79%
